Data from US8946268B2, “Modulators of HEC1 activity and methods therefor” (Taivex Therapeutics, Inc., priority 2010, dated 2015).

What was measured:
Format in all cases: cell-based
[1] = test system: MDA-MB-231; experiment: Antiproliferative activity (MTS assay), MDA-MB-231; settings: Homo sapiens, MDA-MB-231, 96 h, MDA-MB-231 cells
Description: (§1) Antiproliferative effect is expressed as IC50 values in microMolar final concentration.
(§2) Cells were grown at 37° C. in a humidified atmosphere with 5% CO2 and 95% air. Cells were seeded in 96 well tissue culture plates.
(§3) Compound treatment started after overnight incubation of cells (TO). […] Compound was added to the plate in triplicate wells, and the plates were then incubated for 96 hours. DMSO (compounds diluents) was also included and added to the plate in control wells. Cell viability was then determined by MTS assay using CellTiter 96® AQueous non-radioactive cell proliferation assay system (Promega). A plate reader (Molecular Devices, Vmax) was used to read the optical densities, and the results were used to deduce concentration-response curves. […] The results were analyzed using linear regression software (GraphPad Prism 5; GraphPad Software Inc.).
(§4) The GI50 values (growth inhibitory activity) were determined to emphasize on the correction for the cell count at time zero; thus, the % inhibition of test drug were: [1−(T−T0)/(C−T0)]×100; and these value were used to plot the concentration-response curves, and then analyzed with linear regression software (GraphPad Prism 5).

[2] = test system: MDA-MB-468; experiment: Antiproliferative activity (MTS assay), MDA-MB-468; settings: Homo sapiens, MDA-MB-468, 96 h, MDA-MB-468 cells
Description: as §1, §2, §3, §4

[3] = test system: Hela; experiment: Antiproliferative activity (MTS assay), Hela; settings: Homo sapiens, HeLa, 96 h, Hela cells
Description: as §1, §2, §3, §4

[4] = test system: K562; experiment: Antiproliferative activity (MTS assay), K562; settings: Homo sapiens, K562, 96 h, K562 cells
Description: as §1, §2, §3, §4

Compound	IC50 [1]	IC50 [2]	IC50 [3]	IC50 [4]
COc1ccccc1Oc1cc(C)c(-c2csc(NC(=O)c3ccncc3)n2)c(C)c1 [Compound 111]	0.25 µM	0.33 µM	0.33 µM	0.18 µM
COc1cc(-c2csc(NC(=O)c3cncs3)n2)ccc1O [Compound 50]	> 10 µM	> 10 µM	> 10 µM	> 10 µM
COc1cc(-c2csc(NC(=O)c3ccccn3)n2)ccc1O [Compound 36]	> 10 µM	> 10 µM	> 10 µM	> 10 µM
COc1ccc(-c2csc(NC(=O)c3cccnc3)n2)cc1 [Compound 37]	> 10 µM	> 10 µM	> 10 µM	> 10 µM
COc1ccccc1CC(=O)Nc1nc(-c2ccccc2)c(C)s1 [Compound 41]	> 10 µM	> 10 µM	> 10 µM	> 10 µM
CC(C)c1cc(C(C)C)c(-c2csc(NC(=O)c3ccncc3)n2)c(C(C)C)c1 [Compound 73]	> 10 µM	> 10 µM	> 10 µM	> 10 µM
COc1ccc(-c2csc(NC(=O)CCc3ccccc3)n2)c(F)c1 [Compound 23]	> 10 µM	7.12 µM	> 10 µM	> 10 µM
COc1ccc(-c2csc(NC(=O)c3ccccn3)n2)c(OC)c1 [Compound 18]	> 10 µM	> 10 µM	> 10 µM	> 10 µM
COc1cc(-c2csc(NC(=O)c3ccoc3)n2)ccc1O [Compound 51]	> 10 µM	> 10 µM	> 10 µM	> 10 µM
Cc1cc(O)ccc1-c1csc(NC(=O)c2ccc(C#N)cc2)n1 [Compound 61]	> 10 µM	> 10 µM	> 10 µM	> 10 µM
CC(=O)Nc1cc(C)c(-c2csc(NC(=O)c3ccncc3)n2)c(C)c1 [Compound 74]	1.46 µM	1.27 µM	1.59 µM	2.13 µM
COc1ccc(-c2nc(NC(=O)c3ccccn3)sc2C)cc1 [Compound 16]	> 10 µM	> 10 µM	> 10 µM	> 10 µM
COc1ccc(-c2csc(NC(=O)Cc3ccccc3OC)n2)c(OC)c1 [Compound 40]	> 10 µM	> 10 µM	> 10 µM	> 10 µM
Cc1cc(Nc2ccc(Br)cc2)cc(C)c1-c1csc(NC(=O)c2ccncc2)n1 [Compound 122]	0.72 µM	1.22 µM	2.13 µM	0.36 µM
CC(=O)Nc1cc(C)c(-c2csc(NC(=O)Nc3ccncc3)n2)c(C)c1 [Compound 68]	4.24 µM	3.61 µM	5.13 µM	4.96 µM
Cc1cc(C)c(-c2csc(NC(=O)c3ccnc(N4CCN(C)CC4)c3)n2)c(C)c1 [Compound 84]	> 10 µM	28.8 µM	> 10 µM	> 10 µM
COc1ccc(-c2csc(NC(=O)c3ccnc(Cl)c3)n2)cc1 [Compound 54]	4.56 µM	6.95 µM	5.92 µM	6.65 µM
Cc1sc(NC(=O)c2ccccn2)nc1-c1ccccc1 [Compound 19]	6.75 µM	6.85 µM	> 10 µM	> 10 µM
Cc1cc(Nc2ccccc2)c(Br)c(C)c1-c1csc(NC(=O)c2ccncc2)n1 [Compound 123]	0.61 µM	0.88 µM	0.87 µM	0.33 µM
Cc1ccc(-c2nc(NC(=O)c3ccccn3)sc2C)cc1 [Compound 32]	> 10 µM	> 10 µM	> 10 µM	> 10 µM

Compound	IC50 [1]	IC50 [2]	IC50 [3]	IC50 [4]
COc1cc(-c2csc(NC(=O)c3ccncn3)n2)ccc1O [Compound 48]	> 10 µM	> 10 µM	> 10 µM	> 10 µM
Cc1cc(C)c(-c2csc(NC(=O)c3ccnc(Cl)c3)n2)c(C)c1 [Compound 64]	0.62 µM	0.98 µM	0.84 µM	0.93 µM
COc1c(F)cc(-c2csc(NC(=O)c3ccncc3)n2)cc1F [Compound 62]	4 µM	5.45 µM	> 10 µM	7.16 µM
COc1cc(C(=O)Nc2nc(-c3c(C)cc(C)cc3C)cs2)ccn1 [Compound 86]	0.77 µM	2.51 µM	1.72 µM	0.69 µM
COc1ccc([S+]([O-])c2cc(C)c(-c3csc(NC(=O)c4ccncc4)n3)c(C)c2)cc1 (stereo not shown) [Compound 130]	0.09 µM	0.14 µM	0.18 µM	0.08 µM
COc1ccc(-c2csc(NC(=O)c3ccncc3)n2)c(OC)c1 [Compound 13]	> 10 µM	> 10 µM	> 10 µM	> 10 µM
COc1ccc(-c2nc(NC(=O)c3ccc(C#N)cc3)sc2C)cc1 [Compound 39]	> 10 µM	> 10 µM	> 10 µM	> 10 µM
COc1cc(C(=O)Nc2nc(-c3c(C)cc(C)cc3C)cs2)cc(Cl)n1 [Compound 87]	> 10 µM	> 10 µM	> 10 µM	> 10 µM
COc1cc(OC)c(-c2csc(NC(=O)c3ccncc3)n2)c(OC)c1 [Compound 11]	> 10 µM	> 10 µM	> 10 µM	> 10 µM
COc1ccc(-c2csc(NC(=O)c3ccncc3)n2)cc1 [Compound 12]	1.41 µM	2.88 µM	> 10 µM	3.91 µM
Cc1cc(C)c(-c2csc(NC(=O)c3ccc4cn[nH]c4c3)n2)c(C)c1 [Compound 104]	1.1 µM	7.64 µM	> 10 µM	2.44 µM
Cc1cc(Cl)cc(C)c1-c1csc(NC(=O)c2ccncc2)n1 [Compound 55]	0.59 µM	0.89 µM	0.73 µM	0.76 µM
Cc1cc(OCC(C)O)cc(C)c1-c1csc(NC(=O)c2ccncc2)n1 (stereo not shown) [Compound 94]	0.3 µM	0.39 µM	0.23 µM	0.23 µM
COc1ccc(CCC(=O)Nc2nc(-c3ccc(OC)cc3F)cs2)cc1 [Compound 22]	> 10 µM	4.19 µM	> 10 µM	> 10 µM
COc1ccc(-c2nc(NC(=O)c3ccncc3)sc2C)cc1 [Compound 10]	8.03 µM	8.89 µM	> 10 µM	> 10 µM
O=C(Nc1nc(-c2ccc(O)cc2)cs1)c1ccncc1 [Compound 57]	> 10 µM	> 10 µM	> 10 µM	> 10 µM
COc1ccc(-c2csc(NC(=O)c3cccnc3)n2)c(F)c1 [Compound 21]	> 10 µM	> 10 µM	> 10 µM	> 10 µM
Cc1ccc(-c2csc(NC(=O)c3ccccn3)n2)cc1 [Compound 29]	> 10 µM	> 10 µM	> 10 µM	> 10 µM
Cc1cc(C)c(-c2csc(NC(=O)c3ccncc3)n2)c(C)n1 [Compound 44]	1.24 µM	1.01 µM	> 10 µM	1.96 µM
COc1ccc(-c2csc(NC(=O)c3ccnc(Cl)c3)n2)cc1F [Compound 63]	> 10 µM	> 10 µM	> 10 µM	> 10 µM
